# Activity calls are given as the source filed them. The calls are words filed in the database; no cut-off is given here.
# Tests used:
# Plasmodium falciparum [1] = assay: Antiplasmodial activity against Plasmodium falciparum Dd2; assay type: functional, organism-based
# Plasmodium falciparum [2] = assay: Antiplasmodial activity against Plasmodium falciparum W2; assay type: functional, organism-based
# Plasmodium falciparum [3] = assay: Antiplasmodial activity against Plasmodium falciparum F32; assay type: functional, organism-based
# Plasmodium falciparum [4] = assay: Antiplasmodial activity against Plasmodium falciparum FcM29; assay type: functional, organism-based
# Vero = assay: Cytotoxicity against Vero cells at 100 uM by MTS assay; assay type: cell-based; details: chlorocebus sabaeus
# Mus musculus [5] = assay: Toxicity in Swiss mouse at 1000 mg/kg/day, ip for 4 days measured upto day 30; assay type: organism-based; design: route intraperitoneal; details: in vivo, 96 h
# Mus musculus [6] = assay: Toxicity in Swiss mouse at 100 mg/kg/day, po for 4 days measured upto day 30; assay type: organism-based; design: route oral; details: in vivo, 96 h
# Mus musculus [7] = assay: Toxicity in Swiss mouse at 250 mg/kg/day, po for 4 days measured upto day 30; assay type: organism-based; design: route oral; details: in vivo, 96 h
# [8] = system: Plasmodium vinckei petteri; assay: Antiplasmodial activity against Plasmodium vinckei petteri infected in Swiss mouse assessed as recrudescence of malaria at 100 mg/kg/day, ip measured upto day 60 postinfection; assay type: functional, organism-based
# Plasmodium falciparum [9] = assay: Antiplasmodial activity against chloroquine-resistant Plasmodium falciparum W2 in presence of chloroquine; assay type: functional
# Mus musculus [10] = assay: Toxicity in Swiss mouse at 500 mg/kg/day, ip for 4 days measured upto day 30; assay type: organism-based; design: route intraperitoneal; details: in vivo, 96 h
# MRC5 = assay: Cytotoxicity against human MRC5 cells at 100 uM by MTS assay; assay type: cell-based; details: mrc5, 100 µM
# Mus musculus [11] = assay: Toxicity in Swiss mouse at 250 mg/kg/day, ip for 4 days measured upto day 30; assay type: organism-based; design: route intraperitoneal; details: in vivo, 96 h
# [12] = system: Plasmodium vinckei petteri; assay: Antiplasmodial activity against Plasmodium vinckei petteri infected in Swiss mouse assessed as inhibition of parasite growth at 50 mg/kg/day, po measured on day 4 postinfection; assay type: functional, organism-based
# [13] = system: Plasmodium vinckei petteri; assay: Antiplasmodial activity against Plasmodium vinckei petteri infected in Swiss mouse assessed as inhibition of parasite growth at 1 mg/kg/day, po measured on day 4 postinfection; assay type: functional, organism-based
# Plasmodium falciparum [14] = assay: Antiplasmodial activity against Plasmodium falciparum FcM29 assessed as inhibition of parasite growth at 180 nM in presence of 0.87 uM N-acetyl-L-cysteine; assay type: functional, organism-based
# Mus musculus [15] = assay: Toxicity in Swiss mouse at 500 mg/kg/day, po for 4 days measured upto day 30; assay type: organism-based; design: route oral; details: in vivo, 96 h
# [16] = system: Plasmodium vinckei petteri; assay: Antiplasmodial activity against Plasmodium vinckei petteri infected in Swiss mouse assessed as survival at 10 mg/kg, ip treated 4 days before infection measured on day 6 postinfection; assay type: functional, organism-based; design: dose 10 mg/kg
# Plasmodium falciparum [17] = assay: Antiplasmodial activity against chloroquine-resistant Plasmodium falciparum W2 in presence of artemisinin; assay type: functional
# Plasmodium falciparum [18] = assay: Antiplasmodial activity against chloroquine-resistant Plasmodium falciparum W2 in presence of artesunate; assay type: functional
# [19] = system: Plasmodium vinckei petteri; assay: Antiplasmodial activity against Plasmodium vinckei petteri infected in Swiss mouse assessed as mortality at 100 mg/kg, po treated 4 days after infection measured on day 7 postinfection; assay type: functional, organism-based; design: dose 100 mg/kg
# Monocyte = assay: Antioxidant activity in human Monocyte assessed as reduced in PMA-induced ROS production at 3.3 uM by chemiluminescence assay; assay type: functional, cell-based
# [20] = system: Plasmodium vinckei petteri; assay: Antiplasmodial activity against Plasmodium vinckei petteri infected in Swiss mouse assessed as inhibition of parasite growth at 100 mg/kg/day, po measured on day 5 postinfection; assay type: functional, organism-based
# Mus musculus [21] = assay: Toxicity in Swiss mouse at 1000 mg/kg/day, po for 4 days measured upto day 30; assay type: organism-based; design: route oral; details: in vivo, 96 h
# [22] = system: Plasmodium vinckei petteri; assay: Antiplasmodial activity against Plasmodium vinckei petteri infected in Swiss mouse assessed as survival at 10 mg/kg, ip treated 4 days before infection measured on day 9 postinfection; assay type: functional, organism-based; design: dose 10 mg/kg
# [23] = system: Plasmodium vinckei petteri; assay: Antiplasmodial activity against Plasmodium vinckei petteri infected in Swiss mouse assessed as inhibition of parasite growth at 50 mg/kg/day, ip measured on day 4 postinfection; assay type: functional; details: 96 h, route intraperitoneal
# KB = assay: Cytotoxicity against human KB cells at 100 uM by MTS assay; assay type: cell-based
# [24] = system: Plasmodium vinckei petteri; assay: Antiplasmodial activity against Plasmodium vinckei petteri infected in Swiss mouse assessed as recrudescence of malaria at 50 mg/kg/day, ip measured upto day 60 postinfection; assay type: functional, organism-based
# [25] = system: Plasmodium vinckei petteri; assay: Antiplasmodial activity against Plasmodium vinckei petteri infected in Swiss mouse assessed as inhibition of parasite growth at 100 mg/kg/day, ip measured on day 5 postinfection; assay type: functional; details: 120 h, route intraperitoneal
# Mus musculus [26] = assay: Toxicity in Swiss mouse at 100 mg/kg/day, ip for 4 days measured upto day 30; assay type: organism-based; design: route intraperitoneal; details: in vivo, 96 h
# Plasmodium falciparum [27] = assay: Antiplasmodial activity against chloroquine-resistant Plasmodium falciparum W2 in presence of mefloquine; assay type: functional
# [28] = system: Plasmodium vinckei petteri; assay: Antiplasmodial activity against Plasmodium vinckei petteri infected in Swiss mouse assessed as recrudescence of malaria at 5 mg/kg/day, ip measured upto day 60 postinfection; assay type: functional, organism-based
# Plasmodium falciparum [29] = assay: Antiplasmodial activity against chloroquine-resistant Plasmodium falciparum W2 in presence of atovaquone; assay type: functional
# Plasmodium falciparum [30] = assay: Antiplasmodial activity against Plasmodium falciparum FcB1; assay type: functional, organism-based; details: FcB1/Columbia
# Plasmodium falciparum [31] = assay: Antiplasmodial activity against […] Plasmodium falciparum Dd2 assessed as 50% revertant concentration required for mefloquine resistant; assay type: functional
# Plasmodium falciparum [32] = assay: Antiplasmodial activity against chloroquine-resistant Plasmodium falciparum W2 assessed as 50% revertant concentration required for chloroquine susceptibility; assay type: functional
compound,measurement,setting,value
C[C@@H]1CC[C@H]2[C@@H](C)C(=O)O[C@@H]3O[C@@]4(C)CC[C@@H]1[C@]32OO4 [ARTEMISININ],IC50,Plasmodium falciparum [1],13.5 nM
same,IC50,Plasmodium falciparum [2],13.3 nM
same,IC50,Plasmodium falciparum [3],12.5 nM
same,IC50,Plasmodium falciparum [4],12.2 nM
O=c1oc2c(O)c(O)cc3c(=O)oc4c(O)c(O)cc1c4c23 [ELLAGIC ACID],Activity,Vero,Non-toxic
same,Activity,Mus musculus [5],Non-toxic
same,Activity,Mus musculus [6],Non-toxic
same,Activity,Mus musculus [7],Non-toxic
same,Activity,[8],Active
same,FIC50,Plasmodium falciparum [9],0.63
same,Activity,Mus musculus [10],Non-toxic
same,Activity,MRC5,Non-toxic
same,Activity,Mus musculus [11],Non-toxic
same,Activity,[12],Active
same,Activity,[13],Active
same,Activity,Plasmodium falciparum [14],inactive
same,Activity,Mus musculus [15],Non-toxic
same,Activity,[16],Active
same,IC50,Plasmodium falciparum [1],105 nM
same,FIC50,Plasmodium falciparum [17],1.26
same,FIC50,Plasmodium falciparum [18],0.57
same,Activity,[19],inactive
same,Activity,Monocyte,Active
same,Activity,[20],Active
same,IC50,Plasmodium falciparum [2],330 nM
same,Activity,Mus musculus [21],Non-toxic
same,Activity,[22],Active
same,inhibition in vivo at 50 mg/kg/day,[23],100%
same,Activity,KB,Non-toxic
same,Activity,[24],Active
same,inhibition in vivo at 100 mg/kg/day,[25],100%
same,Activity,Mus musculus [26],Non-toxic
same,IC50,Plasmodium falciparum [3],330 nM
same,FIC50,Plasmodium falciparum [27],0.64
same,Activity,[28],Active
same,FIC50,Plasmodium falciparum [29],0.53
same,IC50,Plasmodium falciparum [4],180 nM
same,IC50,Plasmodium falciparum [30],300 nM
same,Activity,Plasmodium falciparum [31],5 ng/mL
OC1(c2ccc(Cl)c(C(F)(F)F)c2)CCN(CCCC(c2ccc(F)cc2)c2ccc(F)cc2)CC1 [PENFLURIDOL],Activity,Plasmodium falciparum [31],96 ng/mL
COc1ccc(CCN(C)CCCC(C#N)(c2ccc(OC)c(OC)c2)C(C)C)cc1OC (stereo unspecified) [VERAPAMIL],Activity,Plasmodium falciparum [32],0.31 µM

# — ChEMBL document CHEMBL1629606, “In vitro and in vivo properties of ellagic acid in malaria treatment” (Antimicrob Agents Chemother, 2009)
